Test results as given in patent US10004701B2, “Methods and compositions for treating infection” (UNIVERSITY OF ROCHESTER, priority 2012, dated 2018).
Where a name gives a salt, the structure may show the parent alone. Read-outs that look alike come from different tables or passages of the source.

Assays:
Experiment in all cases: AK assay 384-well format, Prestwick library screening
E. faecium = format: cell-based, Enterococcus faecium; settings: Enterococcus faecium, 3 h
[1] = test system: S. aureus strain USA300-0114; format: cell-based, Staphylococcus aureus; settings: Staphylococcus aureus, USA300, 3 h
K. pneumoniae = format: cell-based, Klebsiella pneumoniae; settings: Klebsiella pneumoniae, 3 h
[2] = test system: A. baumannii strain 98-37-09; format: cell-based, Acinetobacter baumannii; settings: Acinetobacter baumannii, 983709, 3 h
P. aeruginosa = format: cell-based, Pseudomonas aeruginosa; settings: Pseudomonas aeruginosa, 3 h
E. cloacae = format: cell-based, Enterobacter cloacae; settings: Enterobacter cloacae, 3 h
E. coli = format: cell-based, Escherichia coli; settings: Escherichia coli, 3 h
[3] = 50 μM final drug concentration, planktonic, cutoff for positive 3-fold increase, read-out: AK-based Prestwick Library Screening Results, E. faecium (fold increase in extracellular AK activity)
[4] = 50 μM final drug concentration, planktonic, cutoff for positive 3-fold increase, read-out: AK-based Prestwick Library Screening Results, S. aureus (fold increase in extracellular AK activity)
[5] = 50 μM final drug concentration, planktonic, cutoff for positive 3-fold increase, read-out: AK-based Prestwick Library Screening Results, K. pneumoniae (fold increase in extracellular AK activity)
[6] = 50 μM final drug concentration, planktonic, cutoff for positive 3-fold increase, read-out: AK-based Prestwick Library Screening Results, A. baumannii (fold increase in extracellular AK activity)
[7] = 50 μM final drug concentration, planktonic, cutoff for positive 3-fold increase, read-out: AK-based Prestwick Library Screening Results, P. aeruginosa (fold increase in extracellular AK activity)
[8] = 50 μM final drug concentration, planktonic, cutoff for positive 3-fold increase, read-out: AK-based Prestwick Library Screening Results, E. cloacae (fold increase in extracellular AK activity)
[9] = 50 μM final drug concentration, planktonic, cutoff for positive 3-fold increase, read-out: AK-based Prestwick Library Screening Results, E. coli (fold increase in extracellular AK activity)
[10] = 50 μM final drug concentration, planktonic, cutoff for positive-scoring molecules 3-fold increase, read-out: AK-based Prestwick Library Screening Results, E. faecium (fold increase in extracellular AK activity)
[11] = 50 μM final drug concentration, planktonic, cutoff for positive-scoring molecules 3-fold increase, read-out: AK-based Prestwick Library Screening Results, S. aureus (fold increase in extracellular AK activity)
[12] = 50 μM final drug concentration, planktonic, cutoff for positive-scoring molecules 3-fold increase, read-out: AK-based Prestwick Library Screening Results, K. pneumoniae (fold increase in extracellular AK activity)
[13] = 50 μM final drug concentration, planktonic, cutoff for positive-scoring molecules 3-fold increase, read-out: AK-based Prestwick Library Screening Results, A. baumannii (fold increase in extracellular AK activity)
[14] = 50 μM final drug concentration, planktonic, cutoff for positive-scoring molecules 3-fold increase, read-out: AK-based Prestwick Library Screening Results, P. aeruginosa (fold increase in extracellular AK activity)
[15] = 50 μM final drug concentration, planktonic, cutoff for positive-scoring molecules 3-fold increase, read-out: AK-based Prestwick Library Screening Results, E. cloacae (fold increase in extracellular AK activity)
[16] = 50 μM final drug concentration, planktonic, cutoff for positive-scoring molecules 3-fold increase, read-out: AK-based Prestwick Library Screening Results, E. coli (fold increase in extracellular AK activity)
[17] = planktonic E. faecium, 50 μM final drug concentration, positive cutoff 3-fold increase, read-out: AK-based Prestwick library screening result, E. faecium (fold increase in extracellular AK activity)
[18] = planktonic S. aureus, 50 μM final drug concentration, positive cutoff 3-fold increase, read-out: AK-based Prestwick library screening result, S. aureus (fold increase in extracellular AK activity)
[19] = planktonic K. pneumoniae, 50 μM final drug concentration, positive cutoff 3-fold increase, read-out: AK-based Prestwick library screening result, K. pneumoniae (fold increase in extracellular AK activity)
[20] = planktonic A. baumannii, 50 μM final drug concentration, positive cutoff 3-fold increase, read-out: AK-based Prestwick library screening result, A. baumannii (fold increase in extracellular AK activity)
[21] = planktonic P. aeruginosa, 50 μM final drug concentration, positive cutoff 3-fold increase, read-out: AK-based Prestwick library screening result, P. aeruginosa (fold increase in extracellular AK activity)
[22] = planktonic E. cloacae, 50 μM final drug concentration, positive cutoff 3-fold increase, read-out: AK-based Prestwick library screening result, E. cloacae (fold increase in extracellular AK activity)
[23] = planktonic E. coli, 50 μM final drug concentration, positive cutoff 3-fold increase, read-out: AK-based Prestwick library screening result, E. coli (fold increase in extracellular AK activity)
[24] = 50 μM final drug concentration, cutoff for positive-scoring molecules 3-fold increase, read-out: AK-based Prestwick Library Screening Results, E. faecium (fold increase in extracellular AK activity)
[25] = 50 μM final drug concentration, cutoff for positive-scoring molecules 3-fold increase, read-out: AK-based Prestwick Library Screening Results, S. aureus (fold increase in extracellular AK activity)
[26] = 50 μM final drug concentration, cutoff for positive-scoring molecules 3-fold increase, read-out: AK-based Prestwick Library Screening Results, K. pneumoniae (fold increase in extracellular AK activity)
[27] = 50 μM final drug concentration, cutoff for positive-scoring molecules 3-fold increase, read-out: AK-based Prestwick Library Screening Results, A. baumannii (fold increase in extracellular AK activity)
[28] = 50 μM final drug concentration, cutoff for positive-scoring molecules 3-fold increase, read-out: AK-based Prestwick Library Screening Results, P. aeruginosa (fold increase in extracellular AK activity)
[29] = 50 μM final drug concentration, cutoff for positive-scoring molecules 3-fold increase, read-out: AK-based Prestwick Library Screening Results, E. cloacae (fold increase in extracellular AK activity)
[30] = 50 μM final drug concentration, cutoff for positive-scoring molecules 3-fold increase, read-out: AK-based Prestwick Library Screening Results, E. coli (fold increase in extracellular AK activity)
[31] = read-out: AK-based Prestwick Library Screening Results, E. faecium (increase in extracellular AK activity)
[32] = read-out: AK-based Prestwick Library Screening Results, S. aureus (increase in extracellular AK activity)
[33] = read-out: AK-based Prestwick Library Screening Results, K. pneumoniae (increase in extracellular AK activity)
[34] = read-out: AK-based Prestwick Library Screening Results, A. baumannii (increase in extracellular AK activity)
[35] = read-out: AK-based Prestwick Library Screening Results, P. aeruginosa (increase in extracellular AK activity)
[36] = read-out: AK-based Prestwick Library Screening Results, E. cloacae (increase in extracellular AK activity)
[37] = read-out: AK-based Prestwick Library Screening Results, E. coli (increase in extracellular AK activity)

O=c1c(O)c(-c2cc(O)c(O)c(O)c2)oc2cc(O)cc(O)c12 [Myricetin]
fold induction at 50 µM (E. faecium; [3]): 0.8
fold induction at 50 µM [1, 4]: 0.5
fold induction at 50 µM (K. pneumoniae; [5]): 0.9
fold induction at 50 µM [2, 6]: 0.8
fold induction at 50 µM (P. aeruginosa; [7]): 0.9
fold induction at 50 µM (E. cloacae; [8]): 1.2
fold induction at 50 µM (E. coli; [9]): 0.9

CC(=O)N[C@@H](CC(C)C)C(=O)O [N-Acetyl-L-leucine]
fold induction at 50 µM (E. faecium; [10]): 0.9
fold induction at 50 µM [1, 11]: 0.7
fold induction at 50 µM (K. pneumoniae; [12]): 0.6
fold induction at 50 µM [2, 13]: 0.7
fold induction at 50 µM (P. aeruginosa; [14]): 0.7
fold induction at 50 µM (E. cloacae; [15]): 0.9
fold induction at 50 µM (E. coli; [16]): 0.7

COc1ccc2cc(CCC(C)=O)ccc2c1 [Nabumetone]
fold induction at 50 µM (E. faecium; [10]): 0.4
fold induction at 50 µM [1, 11]: 0.4
fold induction at 50 µM (K. pneumoniae; [12]): 0.5
fold induction at 50 µM [2, 13]: 0.4
fold induction at 50 µM (P. aeruginosa; [14]): 0.6
fold induction at 50 µM (E. cloacae; [15]): 1
fold induction at 50 µM (E. coli; [16]): 0.5

NC(=O)c1ccc[n+]([C@@H]2O[C@H](COP(=O)([O-])OP(=O)(O)OC[C@H]3O[C@@H](n4cnc5c(N)ncnc54)[C@H](O)[C@@H]3O)[C@@H](O)[C@H]2O)c1 [Nadide]
fold induction at 50 µM (E. faecium; [10]): 0.9
fold induction at 50 µM [1, 11]: 0.6
fold induction at 50 µM (K. pneumoniae; [12]): 0.7
fold induction at 50 µM [2, 13]: 0.8
fold induction at 50 µM (P. aeruginosa; [14]): 0.8
fold induction at 50 µM (E. cloacae; [15]): 0.9
fold induction at 50 µM (E. coli; [16]): 0.9

CC1CCc2c(N3CCC(O)CC3)c(F)cc3c(=O)c(C(=O)O)cn1c23 (stereo not shown) [Nadifloxacin]
fold induction at 50 µM (E. faecium; [17]): 2.8
fold induction at 50 µM [1, 18]: 4.3
fold induction at 50 µM (K. pneumoniae; [19]): 5.2
fold induction at 50 µM [2, 20]: 2.9
fold induction at 50 µM (P. aeruginosa; [21]): 17.7
fold induction at 50 µM (E. cloacae; [22]): 1.7
fold induction at 50 µM (E. coli; [23]): 13.4

CC(C)(C)NCC(O)COc1cccc2c1CC(O)C(O)C2 (stereo not shown) [Nadolol]
fold induction at 50 µM (E. faecium; [10]): 0.9
fold induction at 50 µM [1, 11]: 0.7
fold induction at 50 µM (K. pneumoniae; [12]): 0.6
fold induction at 50 µM [2, 13]: 0.7
fold induction at 50 µM (P. aeruginosa; [14]): 0.6
fold induction at 50 µM (E. cloacae; [15]): 0.8
fold induction at 50 µM (E. coli; [16]): 0.8

CCOc1ccc2ccccc2c1C(=O)N[C@@H]1C(=O)N2[C@@H]1SC(C)(C)[C@@H]2C(=O)O [Nafcillin sodium salt monohydrate]
fold induction at 50 µM (E. faecium; [24]): 1
fold induction at 50 µM [1, 25]: 6.5
fold induction at 50 µM (K. pneumoniae; [26]): 1
fold induction at 50 µM [2, 27]: 1.5
fold induction at 50 µM (P. aeruginosa; [28]): 1.3
fold induction at 50 µM (E. cloacae; [29]): 1.4
fold induction at 50 µM (E. coli; [30]): 1.2

CCN(CC)CCOC(=O)C(Cc1cccc2ccccc12)CC1CCCO1 (stereo not shown) [Nafronyl oxalate]
fold induction at 50 µM (E. faecium; [3]): 1
fold induction at 50 µM [1, 4]: 0.9
fold induction at 50 µM (K. pneumoniae; [5]): 1
fold induction at 50 µM [2, 6]: 1
fold induction at 50 µM (P. aeruginosa; [7]): 1.1
fold induction at 50 µM (E. cloacae; [8]): 1.4
fold induction at 50 µM (E. coli; [9]): 1

CN(C/C=C/c1ccccc1)Cc1cccc2ccccc12 [Naftifine hydrochloride]
fold induction at 50 µM (E. faecium; [17]): 1
fold induction at 50 µM [1, 18]: 0.8
fold induction at 50 µM (K. pneumoniae; [19]): 0.7
fold induction at 50 µM [2, 20]: 1.1
fold induction at 50 µM (P. aeruginosa; [21]): 0.8
fold induction at 50 µM (E. cloacae; [22]): 1
fold induction at 50 µM (E. coli; [23]): 1

COc1ccccc1N1CCN(CC(O)COc2cccc3ccccc23)CC1 (stereo not shown) [Naftopidil dihydrochloride]
fold induction at 50 µM (E. faecium; [24]): 0.8
fold induction at 50 µM [1, 25]: 0.5
fold induction at 50 µM (K. pneumoniae; [26]): 0.6
fold induction at 50 µM [2, 27]: 0.7
fold induction at 50 µM (P. aeruginosa; [28]): 0.7
fold induction at 50 µM (E. cloacae; [29]): 0.9
fold induction at 50 µM (E. coli; [30]): 0.9

Oc1ccc2c3c1O[C@H]1[C@@H](O)CC[C@@]4(O)[C@@H](C2)N(CC2CCC2)CC[C@]314 [Nalbuphine hydrochloride]
fold induction at 50 µM (E. faecium; [31]): 0.9
fold induction at 50 µM [1, 32]: 0.7
fold induction at 50 µM (K. pneumoniae; [33]): 0.7
fold induction at 50 µM [2, 34]: 0.9
fold induction at 50 µM (P. aeruginosa; [35]): 0.8
fold induction at 50 µM (E. cloacae; [36]): 1.2
fold induction at 50 µM (E. coli; [37]): 0.9

C=CCN1CC[C@]23c4c5ccc(O)c4O[C@H]2C(=O)CC[C@@]3(O)[C@H]1C5 [Naloxone hydrochloride]
fold induction at 50 µM (E. faecium; [31]): 0.8
fold induction at 50 µM [1, 32]: 0.7
fold induction at 50 µM (K. pneumoniae; [33]): 0.6
fold induction at 50 µM [2, 34]: 0.8
fold induction at 50 µM (P. aeruginosa; [35]): 0.8
fold induction at 50 µM (E. cloacae; [36]): 1.1
fold induction at 50 µM (E. coli; [37]): 0.9

C[C@]12CC[C@H]3[C@@H](CCC4=CC(=O)CC[C@@H]43)[C@@H]1CC[C@@H]2O [Nandrolone]
fold induction at 50 µM (E. faecium; planktonic E. faecium, 50 μM final drug concentration, […], read-out: AK-based Prestwick library screening result, E. faecium (fold increase in extracellular AK activity)): 1
fold induction at 50 µM ([1]; planktonic S. aureus, 50 μM final drug concentration, […], read-out: AK-based Prestwick library screening result, S. aureus (fold increase in extracellular AK activity)): 0.7
fold induction at 50 µM (K. pneumoniae; planktonic K. pneumoniae, 50 μM final drug concentration, […], read-out: AK-based Prestwick library screening result, K. pneumoniae (fold increase in extracellular AK activity)): 0.7
fold induction at 50 µM ([2]; planktonic A. baumannii, 50 μM final drug concentration, […], read-out: AK-based Prestwick library screening result, A. baumannii (fold increase in extracellular AK activity)): 0.8
fold induction at 50 µM (P. aeruginosa; planktonic P. aeruginosa, 50 μM final drug concentration, […], read-out: AK-based Prestwick library screening result, P. aeruginosa (fold increase in extracellular AK activity)): 0.9
fold induction at 50 µM (E. cloacae; planktonic E. cloacae, 50 μM final drug concentration, […], read-out: AK-based Prestwick library screening result, E. cloacae (fold increase in extracellular AK activity)): 1
fold induction at 50 µM (E. coli; planktonic E. coli, 50 μM final drug concentration, […], read-out: AK-based Prestwick library screening result, E. coli (fold increase in extracellular AK activity)): 0.9
